Where two headings read alike, the source gives them in different places.
Legend:
Assay in all cases: cell-based
CB2 [1] = target: T1, CB2 (Homo sapiens, UniProt P34972); conditions: CB2, agonist mode; for EC50: read-out: CB2 Agonist mode β-Arrestin EC50; for Emax: read-out: CB2 Agonist mode β-Arrestin Emax
CB2 [2] = target: T1, CB2; conditions: CB2, agonist mode; for EC50: read-out: CB2 Agonist mode cAMP EC50; for Emax: read-out: CB2 Agonist mode cAMP Emax
hCB1 [3] = target: T2, hCB1 (Homo sapiens, UniProt P21554); parameters: host or cells: CHO-K1 PathHunter
T2 sequence (P21554 whole entry): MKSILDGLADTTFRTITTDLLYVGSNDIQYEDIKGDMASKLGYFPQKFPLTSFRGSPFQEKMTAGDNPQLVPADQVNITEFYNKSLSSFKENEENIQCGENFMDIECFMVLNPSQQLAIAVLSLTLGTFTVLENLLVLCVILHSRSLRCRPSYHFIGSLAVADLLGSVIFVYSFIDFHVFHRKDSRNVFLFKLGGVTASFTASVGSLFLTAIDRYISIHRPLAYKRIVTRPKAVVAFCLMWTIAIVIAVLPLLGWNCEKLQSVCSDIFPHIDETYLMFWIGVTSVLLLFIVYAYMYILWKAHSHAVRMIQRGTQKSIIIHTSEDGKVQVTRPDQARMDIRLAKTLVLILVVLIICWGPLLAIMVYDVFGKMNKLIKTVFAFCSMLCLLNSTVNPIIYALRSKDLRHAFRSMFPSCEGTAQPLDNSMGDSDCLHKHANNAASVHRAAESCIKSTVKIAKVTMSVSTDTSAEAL
Protocol: PathHunter CB1 β-Arrestin Assay: Chinese hamster ovary K1 (CHO-K1)-PathHunter hCB1 β-arrestin cells (DiscoveRx, Fremont, CA) were seeded at 5000 cells/well in 384-well plates 24 h before use and incubated at 37° C., 5% CO2. Compounds were dissolved in dimethyl sulfoxide (DMSO) and diluted in optimized cell culture (OCC) media. Agonist EC80 was determined directly from an agonist dose—response curve (data not shown). […] Five microliters of allosteric modulator or vehicle solution was added to each well at the appropriate concentrations and incubated for 30 min. Five microliters of agonist was then added to each well followed by a 90 min incubation. Fifteen microliters of detection reagent was then added followed by further 60 min incubation at room temperature. Chemiluminescence was measured on a standard luminescence plate reader as relative light units (RLU). Basal RLU was defined as zero. […] Data were analyzed using the fourparameter variable-slope and allosteric EC50 shift nonlinear regression equations in Prism 5.0 (GraphPad, San Diego, CA).

hCB1 [4] = target: T2, hCB1; parameters: host or cells: CHO-K1
Protocol: HitHunter cAMP assay: Inhibition of forskolin-stimulated cAMP was determined using the DiscoveRx HitHunter assay in hCB1R CHO-K1 cells. Cells (20,000 cells/well in low-volume 96 well plates) were incubated overnight in Opti-MEM (Invitrogen) containing 1% FBS at 37° C. and 5% CO2. Following this, Opti-MEM media was removed and replaced with cell assay buffer (DiscoveRx) and cells were co-treated at 37° C. with 10 μM forskolin and hCB1R ligands (0.10 nM-10 μM) for 30 min or 90 min cAMP antibody solution and cAMP working detection solutions were then added to cells according to the manufacturer's directions (DiscoveRx®) and cells were incubated for 60 min at room temperature. cAMP solution A was added according to the manufacturer's directions (DiscoveRx®) and cells were incubated for an additional 60 min at room temperature before chemiluminescence was measured on a Cytation 5 plate reader (top read, gain 200, integration time 10,000 ms).

[5] = CB1, PAM mode, read-out: CB1 PAM mode β-Arrestin EC50
[6] = CB1, agonist mode, read-out: CB1 Agonist mode β-Arrestin EC50
[7] = read-out: CB1 Agonist mode β-Arrestin Emax
[8] = read-out: CB1 PAM mode β-Arrestin Emax
[9] = CB1, PAM mode, read-out: CB1 PAM mode cAMP EC50
[10] = CB1, agonist mode, read-out: CB1 Agonist mode cAMP EC50
[11] = read-out: CB1 Agonist mode cAMP Emax, CB1, agonist mode
[12] = read-out: CB1 PAM mode cAMP Emax, CB1, PAM mode

T1 sequence (P34972 whole entry, species assumed): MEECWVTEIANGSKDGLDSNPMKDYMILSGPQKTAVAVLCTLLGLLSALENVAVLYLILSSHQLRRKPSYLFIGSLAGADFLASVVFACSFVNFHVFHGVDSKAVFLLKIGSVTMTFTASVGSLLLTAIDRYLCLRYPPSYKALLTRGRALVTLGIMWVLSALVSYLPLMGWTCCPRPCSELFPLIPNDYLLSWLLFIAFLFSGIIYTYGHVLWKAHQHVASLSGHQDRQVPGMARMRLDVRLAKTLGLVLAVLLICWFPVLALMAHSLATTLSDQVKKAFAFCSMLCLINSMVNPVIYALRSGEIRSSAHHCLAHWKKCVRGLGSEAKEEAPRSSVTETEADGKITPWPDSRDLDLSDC

Row | SMILES | EC50 (CB2 [1]) | Emax (CB2 [1]) | EC50 (CB2 [2]) | Emax (CB2 [2]) | EC50 (hCB1 [3]; [5]) | EC50 (hCB1 [3]; [6]) | Emax (hCB1 [3]; [7]) | Emax (hCB1 [3]; [8]) | EC50 (hCB1 [4]; [9]) | EC50 (hCB1 [4]; [10]) | Emax (hCB1 [4]; [11]) | Emax (hCB1 [4]; [12]) | CB1 PAM mode β-Arrestin Emax (hCB1 [3]; CB1, PAM mode) | CB1 Agonist mode β-Arrestin Emax (hCB1 [3]; CB1, agonist mode) | CB1 PAM mode cAMP Emax (hCB1 [4]; CB1, PAM mode) | CB1 Agonist mode cAMP Emax (hCB1 [4]; CB1, agonist mode) | EC50 (hCB1 [3]) | EC50 (hCB1 [4]; CB1 PAM mode cAMP EC50, CB1, PAM mode)
1 | O=C(O)CC=C(c1ccccc1)c1cn(-c2ccccc2)c2ccccc12 (mixture of isomers) [Compound 16, (E and Z)-4-Phenyl-4-(1-phenyl-1H-indol-3-yl)but-3-enoic acid] | > 10000 nM | 0% | 359 nM | 80% | > 10000 nM | > 10000 nM | 0% | 0% | 934 nM | 689 nM | 94% | 104% |  |  |  |  |  | 
2 | CC(CC(c1ccccc1)c1cn(-c2ccccc2)c2ccccc12)C(=O)O (racemic) [Compound 11, (±)-2-Methyl-4-phenyl-4-(1-phenyl-1H-indol-3-yl)butanoic acid] |  |  |  |  | > 10000 nM | > 10000 nM | 0% | 0% | 1890 nM | 1260 nM | 62% | 100% |  |  |  |  |  | 
3 | CC(CC(c1ccccc1)c1cn(-c2ccccc2)c2ccccc12)C(=O)O (racemic) [Compound 12, (±)-2-Methyl-4-phenyl-4-(1-phenyl-1H-indol-3-yl)butanoic acid] |  |  |  |  | > 10000 nM | > 10000 nM |  |  | 704 nM | 1060 nM |  |  | (0) % | (0) % | (101) % | (60) % |  | 
4 | O=C(O)C(c1ccccc1)c1cn(-c2ccccc2)c2ccccc12 (centres unmarked) [Compound 7, 2-Phenyl-2-(1-phenyl-1H-indol-3-yl)acetic acid] |  |  |  |  | > 10000 nM |  |  | 0% | 4180 nM |  |  | 78.9% |  |  |  |  |  | 
5 | O=C(O)CC(c1ccccc1)c1cn(-c2ccccc2)c2ccccc12 (centres unmarked) [Compound 8, 3-Phenyl-3-(1-phenyl-1H-indol-3-yl)propanoic acid] |  |  |  |  | > 10000 nM |  |  | 0% | 509 nM |  |  | 144% |  |  |  |  |  | 
6 | O=C(O)C(C(=O)O)C(c1ccccc1)c1cn(-c2ccccc2)c2ccccc12 (centres unmarked) [Compound 9, 2-(Phenyl(1-phenyl-1H-indol-3-yl)methyl)malonic acid] |  |  |  |  | > 10000 nM |  |  | 0% | 1280 nM |  |  | 158% |  |  |  |  |  | 
7 | CCOC(=O)C(C(=O)O)C(c1ccccc1)c1cn(-c2ccccc2)c2ccccc12 (centres unmarked) [Compound 10, 3-Ethoxy-3-oxo-2-(phenyl(1-phenyl-1H-indol-3-yl)methyl)propanoic acid] |  |  |  |  | > 10000 nM |  |  | 4.59% | > 10000 nM |  |  | 6.98% |  |  |  |  |  | 
8 | CCOC(=O)CCC(c1ccccc1)c1cn(-c2ccccc2)c2ccccc12 (centres unmarked) [Compound 13, Ethyl 4-phenyl-4-(1-phenyl-1H-indol-3-yl)butanoate] |  |  |  |  | > 10000 nM |  |  | 0% | > 10000 nM |  |  | 0% |  |  |  |  |  | 
9 | O=C(O)/C=C\C(c1ccccc1)c1cn(-c2ccccc2)c2ccccc12 (centres unmarked) [Compound 15, (Z)-4-phenyl-4-(1-phenyl-1H-indol-3-yl)but-2-enoic acid] | > 10000 nM | 0% | 1050 nM | 81% | > 10000 nM | > 10000 nM | 0% | 0% | 639 nM | 506 nM | 86% | 84% |  |  |  |  |  | 
10 | Cc1ccc2c(C(CCC(=O)O)c3ccccc3)cn(-c3ccccc3)c2c1 (centres unmarked) [Compound 17, 4-(6-Methyl-1-phenyl-1H-indol-3-yl)-4-phenylbutanoic acid] | > 10000 nM | 0% | 1000 nM | 74% | > 10000 nM | > 10000 nM | 0% | 0% | 1440 nM | 1250 nM | 73% | 93% |  |  |  |  |  | 
11 | O=C(O)CCC(c1ccccc1)c1cn(Cc2ccccc2)c2ccccc12 (centres unmarked) [Compound 18, 4-(1-Penzyl-1H-indol-3-yl)-4-phenylbutanoic acid] | > 10000 nM | 0% | 407 nM | 64% | > 10000 nM | > 10000 nM | 0% | 0% | 610 nM | 1040 nM | 87% | 97% |  |  |  |  |  | 
12 | O=C(O)CCCC(c1ccccc1)c1cn(-c2ccccc2)c2ccccc12 (centres unmarked) [Compound 19, 5-Phenyl-5-(1-phenyl-1H-indol-3-yl)pentanoic acid] | > 10000 nM | 0% | 654 nM | 95% | > 10000 nM | > 10000 nM | 0% | 0% | 1420 nM | 827 nM | 98% | 98% |  |  |  |  |  | 
13 | O=C(O)CCCCC(c1ccccc1)c1cn(-c2ccccc2)c2ccccc12 (centres unmarked) [Compound 20, 6-Phenyl-6-(1-phenyl-1H-indol-3-yl)hexanoic acid] | > 10000 nM | 0% | 505 nM | 98% | > 10000 nM | > 10000 nM | 0% | 0% | 1090 nM | 355 nM | 96% | 96% |  |  |  |  |  | 
14 | O=C(O)CCC(c1ccccc1)c1cn(-c2ccccn2)c2ccccc12 (centres unmarked) [Compound 21, 4-Phenyl-4-(1-(pyridin-2-yl)-1H-indol-3-yl)butanoic acid] | > 10000 nM | 0% | 1110 nM | 85% | > 10000 nM | > 10000 nM | 0% | 0% | 869 nM | 457 nM | 95% | 96% |  |  |  |  |  | 
15 | O=C(O)CCC(c1ccccc1)c1cn(-c2cccnc2)c2ccccc12 (centres unmarked) [Compound 22, 4-Phenyl-4-(1-(pyridin-3-yl)-1H-indol-3-yl)butanoic acid] | > 10000 nM | 0% | 731 nM | 68% | > 10000 nM | > 10000 nM | 0% | 0% | 1000 nM | 831 nM | 87% | 109% |  |  |  |  |  | 
16 | OC(c1ccccc1)c1cn(-c2ccccc2)c2ccccc12 (centres unmarked) [Compound 30, Phenyl(1-phenyl-1H-indol-3-yl)methanol] |  |  |  |  | > 10000 nM |  |  | 0% | > 10000 nM |  |  | 0% |  |  |  |  |  | 
17 | OCC(c1ccccc1)c1cn(-c2ccccc2)c2ccccc12 (centres unmarked) [Compound 31, 2-Phenyl-2-(1-phenyl-1H-indol-3-yl)ethan-1-ol] |  |  |  |  | > 10000 nM |  |  | 0% | > 10000 nM |  |  | 1.31% |  |  |  |  |  | 
18 | OCCC(c1ccccc1)c1cn(-c2ccccc2)c2ccccc12 (centres unmarked) [Compound 32, 3-Phenyl-3-(1-phenyl-1H-indol-3-yl)propan-1-ol] |  |  |  |  | > 10000 nM |  |  | 0% | > 10000 nM |  |  | 27.1% |  |  |  |  |  | 
19 | OCCCC(c1ccccc1)c1cn(-c2ccccc2)c2ccccc12 (centres unmarked) [Compound 34, 4-Phenyl-4-(1-phenyl-1H-indol-3-yl)butan-1-ol] |  |  |  |  | > 10000 nM |  |  | 5% | > 10000 nM |  |  | 0% |  |  |  |  |  | 
20 | OCC(c1ccccc1)c1cn(-c2ccccc2)c2ccc(Cl)cc12 (centres unmarked) [Compound 35, 2-(5-Chloro-1-phenyl-1H-indol-3-yl)-2-phenylethan-1-ol] |  |  |  |  | > 10000 nM |  |  | 0% | > 10000 nM |  |  | 2.81% |  |  |  |  |  | 
21 | NC(=O)CC(c1ccccc1)c1cn(-c2ccccc2)c2ccccc12 (centres unmarked) [Compound 38, 3-Phenyl-3-(1-phenyl-1H-indol-3-yl)propanamide] |  |  |  |  | > 10000 nM |  |  | 0% | > 10000 nM |  |  | 27.1% |  |  |  |  |  | 
22 | c1ccc(C(Cc2nnn[nH]2)c2cn(-c3ccccc3)c3ccccc23)cc1 (centres unmarked) [Compound 39, 1-Phenyl-3-(1-phenyl-2-(1H-tetrazol-5-yl)ethyl)-1H-indole] |  |  |  |  | > 10000 nM |  |  | 0% | 423 nM |  |  | 94% |  |  |  |  |  | 
23 | O=C(c1ccccc1)c1cn(-c2ccccc2)c2ccccc12 [Compound 40, Phenyl(1-phenyl-1H-indol-3-yl)methanone] |  |  |  |  |  |  |  | 0.273% |  |  |  | 11.7% |  |  |  |  | > 10000 nM | > 10000 nM
